Source: PubChem BioAssay AID1963839 (Molecular Pharmacology Branch, DTP, NCI, 2024)

System: 817829-284-R-J1-PDC complex spheroid viability
Assay: Anticancer human tumor 817829-284-R-J1-PDC patient-derived colon adenocarcinoma cell line growth inhibition [POLQ]
Details: for IC50: curve of first compound; for viability, T/C: stronger effect = lower value
Method in brief: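 Three-cell-type spheroids modelling solid tumor plus stroma served as the readout system; POL inhibitors were tested individually and in combination, concentration ranges set by clinical Cmax where known.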

[1] = second compound 0.0316 µM, first compound 0.0316 µM
[2] = second compound 0.0316 µM, first compound 0.1 µM
[3] = second compound 0.0316 µM, first compound 0.316 µM
[4] = second compound 0.0316 µM, first compound 1 µM
[5] = second compound 0.1 µM, first compound 0.0316 µM
[6] = second compound 0.1 µM, first compound 0.1 µM
[7] = second compound 0.1 µM, first compound 0.316 µM
[8] = second compound 0.1 µM, first compound 1 µM
[9] = second compound 0.316 µM, first compound 0.0316 µM
[10] = second compound 0.316 µM, first compound 0.1 µM
[11] = second compound 0.316 µM, first compound 0.316 µM
[12] = second compound 0.316 µM, first compound 1 µM
[13] = second compound 1 µM, first compound 0.0316 µM
[14] = second compound 1 µM, first compound 0.1 µM
[15] = second compound 1 µM, first compound 0.316 µM
[16] = second compound 1 µM, first compound 1 µM
[17] = second compound 3.16 µM, first compound 0.0316 µM
[18] = second compound 3.16 µM, first compound 0.1 µM
[19] = second compound 3.16 µM, first compound 0.316 µM
[20] = second compound 3.16 µM, first compound 1 µM
[21] = second compound 10 µM, first compound 0.0316 µM
[22] = second compound 10 µM, first compound 0.1 µM
[23] = second compound 10 µM, first compound 0.316 µM
[24] = second compound 10 µM, first compound 1 µM
[25] = second compound 0.0316 µM, first compound 0.00316 µM
[26] = second compound 0.0316 µM, first compound 0.01 µM
[27] = second compound 0.1 µM, first compound 0.00316 µM
[28] = second compound 0.1 µM, first compound 0.01 µM
[29] = second compound 0.316 µM, first compound 0.00316 µM
[30] = second compound 0.316 µM, first compound 0.01 µM
[31] = second compound 1 µM, first compound 0.00316 µM
[32] = second compound 1 µM, first compound 0.01 µM
[33] = second compound 3.16 µM, first compound 0.00316 µM
[34] = second compound 3.16 µM, first compound 0.01 µM
[35] = second compound 10 µM, first compound 0.00316 µM
[36] = second compound 10 µM, first compound 0.01 µM
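Note: spheroids exposed to compounds for 7 days.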
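Throughout, for viability, T/C: 100% = DMSO vehicle-treated spheroids.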

Question: Which results are given for CC1COCCN1c1cc(-c2ccnn2C)c2ccnc(-c3ccn[nH]3)c2n1 (stereo unspecified) + Cc1cccc(N(C)C(=O)C2C(O)CCN2c2nc(C)cc(C(F)(F)F)c2C#N)c1?
Answer: IC50 (second compound 0.0316 µM): < 31.6 nM; IC50 (second compound 0.1 µM): < 31.6 nM; IC50 (second compound 0.316 µM): < 31.6 nM; IC50 (second compound 1 µM): < 31.6 nM; IC50 (second compound 3.16 µM): 32.7 nM; IC50 (second compound 10 µM): < 31.6 nM; viability, T/C [1]: 36.6%; viability, T/C [2]: 19.1%; viability, T/C [3]: 6.76%; viability, T/C [4]: 4.35%; viability, T/C (second compound 0.0316 µM, first compound 3.16 µM): 3.09%; viability, T/C (second compound 0.0316 µM, first compound 10 µM): 2.85%; viability, T/C [5]: 33.4%; viability, T/C [6]: 16.9%; viability, T/C [7]: 7.78%; viability, T/C [8]: 4.15%; viability, T/C (second compound 0.1 µM, first compound 3.16 µM): 3.55%; viability, T/C (second compound 0.1 µM, first compound 10 µM): 2.55%; viability, T/C [9]: 45.2%; viability, T/C [10]: 15.3%; viability, T/C [11]: 6.75%; viability, T/C [12]: 4.29%; viability, T/C (second compound 0.316 µM, first compound 3.16 µM): 3.67%; viability, T/C (second compound 0.316 µM, first compound 10 µM): 2.6%; viability, T/C [13]: 33.9%; viability, T/C [14]: 13.1%; viability, T/C [15]: 5.41%; viability, T/C [16]: 4.86%; viability, T/C (second compound 1 µM, first compound 3.16 µM): 3.3%; viability, T/C (second compound 1 µM, first compound 10 µM): 2.87%; viability, T/C [17]: 50.8%; viability, T/C [18]: 21.9%; viability, T/C [19]: 5.75%; viability, T/C [20]: 3.57%; viability, T/C (second compound 3.16 µM, first compound 3.16 µM): 3.34%; viability, T/C (second compound 3.16 µM, first compound 10 µM): 3.14%; viability, T/C [21]: 36.6%; viability, T/C [22]: 20%; viability, T/C [23]: 7.43%; viability, T/C [24]: 4.51%; viability, T/C (second compound 10 µM, first compound 3.16 µM): 3.57%; viability, T/C (second compound 10 µM, first compound 10 µM): 2.62%

Question: CC[C@@]1(O)C(=O)OCc2c1cc1n(c2=O)Cc2cc3c(CN(C)C)c(O)ccc3nc2-1 + Cc1cccc(N(C)C(=O)C2C(O)CCN2c2nc(C)cc(C(F)(F)F)c2C#N)c1 was tested. Which IC50 (second compound 0.0316 µM) did it give?
Answer: 6.93 nM

Question: And the IC50 (second compound 0.1 µM)?
Answer: 7.54 nM

Question: What about the IC50 (second compound 0.316 µM) of the same compound?
Answer: 8.14 nM

Question: What about the IC50 (second compound 1 µM) of the same compound?
Answer: 6.95 nM

Question: And the IC50 (second compound 3.16 µM)?
Answer: 7.21 nM

Question: What about the IC50 (second compound 10 µM) of the same compound?
Answer: 6.98 nM

Question: And the viability, T/C (second compound 0.0316 µM, first compound 0.000316 µM)?
Answer: 109%

Question: What about the viability, T/C (second compound 0.0316 µM, first compound 0.001 µM) of the same compound?
Answer: 121%

Question: What about the viability, T/C [25] of the same compound?
Answer: 78.5%

Question: And the viability, T/C [26]?
Answer: 38%

Question: And the viability, T/C [1]?
Answer: 22.6%

Question: And the viability, T/C [2]?
Answer: 18.1%

Question: What about the viability, T/C (second compound 0.1 µM, first compound 0.000316 µM) of the same compound?
Answer: 87.9%

Question: What about the viability, T/C (second compound 0.1 µM, first compound 0.001 µM) of the same compound?
Answer: 118%

Question: And the viability, T/C [27]?
Answer: 72.8%

Question: And the viability, T/C [28]?
Answer: 43.6%

Question: What about the viability, T/C [5] of the same compound?
Answer: 23.5%

Question: And the viability, T/C [6]?
Answer: 17.4%

Question: And the viability, T/C (second compound 0.316 µM, first compound 0.000316 µM)?
Answer: 103%

Question: And the viability, T/C (second compound 0.316 µM, first compound 0.001 µM)?
Answer: 96.8%

Question: And the viability, T/C [29]?
Answer: 61.6%

Question: What about the viability, T/C [30] of the same compound?
Answer: 54.1%

Question: What about the viability, T/C [9] of the same compound?
Answer: 20%

Question: And the viability, T/C [10]?
Answer: 15.3%

Question: What about the viability, T/C (second compound 1 µM, first compound 0.000316 µM) of the same compound?
Answer: 124%

Question: What about the viability, T/C (second compound 1 µM, first compound 0.001 µM) of the same compound?
Answer: 84.9%

Question: What about the viability, T/C [31] of the same compound?
Answer: 76.2%

Question: What about the viability, T/C [32] of the same compound?
Answer: 38.9%

Question: And the viability, T/C [13]?
Answer: 22%

Question: What about the viability, T/C [14] of the same compound?
Answer: 17.2%

Question: What about the viability, T/C (second compound 3.16 µM, first compound 0.000316 µM) of the same compound?
Answer: 89.7%

Question: And the viability, T/C (second compound 3.16 µM, first compound 0.001 µM)?
Answer: 123%

Question: What about the viability, T/C [33] of the same compound?
Answer: 83.2%

Question: What about the viability, T/C [34] of the same compound?
Answer: 37.2%

Question: What about the viability, T/C [17] of the same compound?
Answer: 21.4%

Question: What about the viability, T/C [18] of the same compound?
Answer: 16.8%

Question: And the viability, T/C (second compound 10 µM, first compound 0.000316 µM)?
Answer: 89.5%

Question: What about the viability, T/C (second compound 10 µM, first compound 0.001 µM) of the same compound?
Answer: 113%

Question: And the viability, T/C [35]?
Answer: 82.7%

Question: And the viability, T/C [36]?
Answer: 34.8%

Question: And the viability, T/C [21]?
Answer: 22.2%

Question: And the viability, T/C [22]?
Answer: 14.6%

Question: What does the source list for CCc1c2c(nc3ccc(O)cc13)-c1cc3c(c(=O)n1C2)COC(=O)[C@]3(O)CC + Cc1cccc(N(C)C(=O)C2C(O)CCN2c2nc(C)cc(C(F)(F)F)c2C#N)c1?
Answer: IC50 (second compound 0.0316 µM): < 3.16 nM; IC50 (second compound 0.1 µM): < 3.16 nM; IC50 (second compound 0.316 µM): < 3.16 nM; IC50 (second compound 1 µM): < 3.16 nM; IC50 (second compound 3.16 µM): < 3.16 nM; IC50 (second compound 10 µM): < 3.16 nM; viability, T/C [25]: 25.3%; viability, T/C [26]: 19%; viability, T/C [1]: 13.3%; viability, T/C [2]: 7.02%; viability, T/C [3]: 5.47%; viability, T/C [4]: 2.88%; viability, T/C [27]: 24.9%; viability, T/C [28]: 16.9%; viability, T/C [5]: 11.1%; viability, T/C [6]: 8.13%; viability, T/C [7]: 5.27%; viability, T/C [8]: 3.6%; viability, T/C [29]: 16.9%; viability, T/C [30]: 15.3%; viability, T/C [9]: 11.9%; viability, T/C [10]: 9.03%; viability, T/C [11]: 5.25%; viability, T/C [12]: 3.06%; viability, T/C [31]: 24.7%; viability, T/C [32]: 18.8%; viability, T/C [13]: 11.3%; viability, T/C [14]: 5.74%; viability, T/C [15]: 5.46%; viability, T/C [16]: 3.33%; viability, T/C [33]: 19.6%; viability, T/C [34]: 15.9%; viability, T/C [17]: 12.5%; viability, T/C [18]: 8.19%; viability, T/C [19]: 4.73%; viability, T/C [20]: 2.56%; viability, T/C [35]: 20.8%; viability, T/C [36]: 17%; viability, T/C [21]: 11.3%; viability, T/C [22]: 7.07%; viability, T/C [23]: 5.05%; viability, T/C [24]: 2.83%
